The values that follow come from ChEMBL document CHEMBL3600332, “Novel dammarane-type triterpenes isolated from hydrolyzate of total Gynostemma pentaphyllum saponins” (Bioorg Med Chem Lett, 2015).

Experiment [1] in a line: Cytotoxicity against human BGC823 cells after 48 hrs by MTT assay. The note with it: BGC-823, 48 h. Format: functional, cell-based.
The test system of experiment [2] is HCT-116. Kind of experiment: Cytotoxicity against human HCT116 cells after 48 hrs by MTT assay. The format is functional, cell-based. The settings on record: HCT-116, 48 h.
Experiment [3] deals with HT-29. Kind of experiment: Cytotoxicity against human HT-29 cells after 48 hrs by MTT assay. Format: functional, cell-based. The settings on record: HT-29, 48 h.
The test system of experiment [4] is MCF7. Kind of experiment: Cytotoxicity against human MCF7 cells after 48 hrs by MTT assay. Format: functional, cell-based. The settings on record: for IC50: MCF7, 48 h. Background: Formazan colour is commonly taken as a measure of viable cells.
The nature of experiment [5]: Cytotoxicity against human MCF10A cells after 48 hrs by MTT assay. The format is cell-based. The note with it: MCF-10A.
The test system of experiment [6] is MCF7. In words: Cytotoxicity against human MCF7 cells at 1 uM by MTT assay. The note with it: TDE = time-dependent effect. The format is functional, cell-based.
The test system of experiment [7] is MCF7. In words: Induction of apoptosis in human MCF7 cells assessed as bubble-shaped regions at 20 uM after 36 hrs by phase-contrast microscopic analysis. The format is functional, cell-based.
Experiment [8] relates to MCF7. Kind of experiment: Induction of apoptosis in human MCF7 cells assessed as condensed chromatin in nucleus at 20 uM after 36 hrs by DAPI staining. The format is functional, cell-based.
For experiment [9], the system named is MCF7. Kind of experiment: Cell cycle arrest in human MCF7 cells assessed as accumulation at subG1 phase at 20 uM after 12 to 36 hrs using propidium-iodide staining by flow-cytometry (reference value: 0.41%). Format: functional.
The test system of experiment [10] is MCF7. Kind of experiment: Cell cycle arrest in human MCF7 cells assessed as accumulation at M1 phase at 20 uM after 12 to 36 hrs using propidium-iodide staining by flow-cytometry (reference value: 0.95%). Format: functional.

Structures are written as SMILES. Active and inactive are the calls of the source. No cut-off for these calls is given here.

As to `CC(C)(O)CC/C=C(/CO[C@@H]1O[C@H](CO)[C@@H](O)[C@H](O)[C@H]1O)[C@H]1CC[C@]2(C)[C@@H]1CC[C@@H]1[C@@]3(C)CC[C@H](O)C(C)(C)[C@@H]3CC[C@]12C`, the IC50 (in general, the concentration needed to halve the response being measured) in experiment [1] was greater than 100 µM; in [2] it was 67.3 µM; in [3] it was 33.6 µM; in [4], 52.4 µM; in experiment [5], greater than 100 µM.
On to `CC(C)(O)CCC[C@@H](CO[C@@H]1O[C@H](CO)[C@@H](O)[C@H](O)[C@H]1O)[C@H]1CC[C@]2(C)[C@@H]1CC[C@@H]1C3=C(CC[C@]12C)C(C)(C)[C@@H]1CC[C@H]3O1`, for which the IC50 is greater than 100 µM in experiment [1]; greater than 100 µM in [2]; 32 µM in experiment [3]; 21.2 µM in experiment [4]; greater than 100 µM in experiment [5].
Consider `COC(C)(C)CCC[C@@](O)(CO[C@@H]1O[C@H](CO)[C@@H](O)[C@H](O)[C@H]1O)[C@H]1CC[C@]2(C)[C@@H]1CC[C@@H]1C3=C(CC[C@]12C)C(C)(C)[C@@H]1CC[C@H]3O1`, for which the IC50 in experiment [1] is greater than 100 µM; in [2], 55.7 µM; in [3] it was 28.1 µM; in [4] it was 6.85 µM; in [5] it was greater than 100 µM. The Activity entry in [4] is “Dose-dependent effect”; in experiment [6], “tde”; in experiment [9], 17.09%; in [10] it was 74.59%. Also, the result in [7] and in [8] was Active.
As to `CC(C)(O)CC/C=C(/CO[C@@H]1O[C@H](CO)[C@@H](O)[C@H](O)[C@H]1O)[C@H]1CC[C@]2(C)[C@@H]1CC[C@@H]1C3=C(CC[C@]12C)C(C)(C)[C@@H]1CC[C@H]3O1`, the IC50 in experiment [1] was greater than 100 µM; in experiment [2] it was greater than 100 µM; in [3], 26.1 µM; in experiment [4], 14.3 µM; in [5] it was greater than 100 µM.
For `CC(C)(O)CC/C=C(/CO[C@@H]1O[C@H](CO)[C@@H](O)[C@H](O)[C@H]1O)[C@@H]1CC[C@]2(C)[C@@H]1CC[C@@H]1[C@@]3(C)CC[C@H](O)C(C)(C)[C@@H]3CC[C@]12C`, the IC50 in experiment [1] is greater than 100 µM; in [2], 66.5 µM; in [3] it was 30.5 µM; in [4], 46.3 µM; in [5], greater than 100 µM.
